Test results taken from patent publication US20230057012A1, “TGFB INHIBITORS AND USE THEREOF” (Scholar Rock, Inc., priority 2020, published 2023).

Key:
[1] = tested on: Female Fischer344 rats or Sprague Dawley (SD) rats; conditions: rat, in vivo
Description: Animals receiving LY2109761 were dosed by oral gavage once daily for five or seven days. Animals were sacrificed and necropsies performed.

non-diseased rat BAL = experiment: TGFβ downstream tonic signaling in rat BAL; format: in vivo
Source text: Indeed, data presented herein support this notion. […] Preferably, TGFβ antagonists for use in the treatment of such conditions exert their inhibitory activities only towards the disease-induced or disease-associated isoform, while preserving the function of the other isoforms that are normally expressed to mediate tonic signaling in the tissue. […] Alternatively or additionally, agents that target and block integrin-dependent activation of TGFβ may be capable of blocking only a subset of integrins responsible for disease-associated TGFβ1 activation, among numerous integrin types that are expressed by various cell types and play a role in the pathogenesis. Furthermore, even where such antagonists may selectively block integrin-mediated activation of the TGFβ1 isoform, it may be ineffective in blocking TGFβ1 activation triggered by other modes, such as protease-dependent activation. By contrast, the isoform-specific, inhibitors of TGFβ1 such as those described herein are aimed to prevent the activation step of TGFβ1 regardless of the particular mode of activation, while maintaining isoform selectivity. Preferably, the isoform-selective activation inhibitor of TGFβ1 is Ab46 or an engineered molecule comprising an antigen-binding fragment thereof.

Human = conditions: in vivo; cited from earlier work

Molecule	bone findings [1]	TGFβ downstream tonic signaling (non-diseased rat BAL)	Half-life (Human)	previously reported adverse events in human patients (Human)
c1ccc(-c2nn3c(c2-c2ccnc4cc(OCCN5CCOCC5)ccc24)CCC3)nc1 [LY2109761]	macroscopic abnormally shaped sternum and microscopic increased thickness of the hypertrophic zone in the endplate of the sternum and physis of the femur and tibia	inhibit TGFβ downstream tonic signaling	–	–
GC1008: human analog of 1D11, pan-TGFβ antibody	–	–	Half-life: 21.7 d	leukocytosis (grade 3), fatigue (grade 3), hypoxia (grade 3), asystole (grade 5), leukopenia (grade 1), recurrent, transient, tender erythematous, nodular skin lesions, suppurative dermatitis, and herpes zoster
